From patent publication US20110112151A1, “COMPOUND CAPABLE OF INHIBITING 11-BETA HYDROXYSTERIOD DEHYDROGENASE” (priority 2008, published 2011)

How the values were obtained:
[1] = target: T1, 11β-HSD1 (Homo sapiens, UniProt P28845); experiment: 11β-HSD1 HEK assay (cell based assay, SPA); settings: HEK293; at 1 μM; whole HEK 293 cells stably transfected with the HSD11B1 gene, 3H-cortisone substrate; read-out: Activity (inhibition of 11β-HSD1)
T1 construct: expressed in transfected cells; host or cells: HEK 293 (stably transfected, HEK 293/HSD11B1)
Method: 11β-HSD1 HEK Assay Protocol (Cell Based Assay)
11β-HSD1 activity is measured in whole HEK 293 cells stably transfected with the HSD11B1 gene. Cells are incubated in 96-well microplates in the presence of tritiated substrate. Enzyme activity is determined by measuring the amount of tritated product by scintillation proximity assay (SPA). Assay plates contain internal high and low controls to allow calculation of percentage inhibition.
1. […] 2. When the cells are 80% confluent the medium is removed from each well. 100 μl fresh, serum-free, medium containing ^3H-cortisone and test compound in 1% DMSO is added to each well*. Control wells are also dispensed. […] 3. The plate is incubated at 37° C. for the required time period. 4. 50 μl of media is removed from each well and transferred to a microplate containing 100 μl of a pre-incubated mixture of anti-cortisol antibody and SPA bead. The mixture is incubated with gentle shaking until equilibrium is reached, before transferring to a scintillation counter to establish the enzyme activity in each sample.
10 μl of compound is dispensed into each well of a 96-well microplate in 10% DMSO at 100 μM concentration. 90 μl media containing ^3H-cortisone is added to each well. The compound/media/substrate mixture is then transferred to the assay plate containing the cells. […]

T1 sequence (P28845 whole entry): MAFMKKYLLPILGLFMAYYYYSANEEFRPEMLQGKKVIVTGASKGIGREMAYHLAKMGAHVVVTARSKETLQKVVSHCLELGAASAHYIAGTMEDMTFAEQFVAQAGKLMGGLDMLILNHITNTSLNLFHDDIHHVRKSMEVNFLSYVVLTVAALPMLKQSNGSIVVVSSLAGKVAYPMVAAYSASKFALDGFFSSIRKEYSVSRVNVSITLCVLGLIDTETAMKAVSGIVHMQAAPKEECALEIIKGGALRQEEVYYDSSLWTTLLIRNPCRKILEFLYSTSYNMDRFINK

SMILES | melting point [°C] | inhibition at 1 µM [1] [%]
Cc1nnc(SCC(=O)C23CC4CC(CC(C4)C2)C3)n1C(C)C [Example 103, 1-(Adamantan-1-yl)-2-{[5-methyl-4-(propan-2-yl)-4H-1,2,4-triazol-3-yl]sulfanyl}ethan-1-one] | 119 to 120.5 | > 60
O=C(CSc1ccncc1)C12CC3CC(CC(C3)C1)C2 [Example 27, 1-Adamantan-1-yl-2-(pyridin-4-ylsulfanyl)-ethanone] | 114 to 115 | > 60
Cc1cccc([S+]([O-])CC(=O)C23CC4CC(CC(C4)C2)C3)n1 (centres unmarked) [Example 31, 1-(adamantan-1-yl)-2-[(6-methylpyridine-2-)sulfinyl]ethan-1-one] | 75 to 76 | > 60
O=C(O)c1ccc(SCC(=O)C23CC4CC(CC(C4)C2)C3)nc1 [Example 29, 6-(2-Adamantan-1-yl-2-oxo-ethylsulfanyl)-nicotinic acid] | 174 to 176 | > 60
O=C(Nc1nnc(S(=O)(=O)CC(=O)C23CC4CC(CC(C4)C2)C3)s1)C1CC1 [Example 97, N-(5-{[2-(Adamantan-1-yl)-2-oxoethane]sulfonyl}-1,3,4-thiadiazol-2-yl)cyclopropanecarboxamide] | 209 to 211 | > 60
CNC(=O)c1ccc(SCC(=O)C23CC4CC(CC(C4)C2)C3)nc1 [Example 36, 6-(2-Adamantan-1-yl-2-oxo-ethylsulfanyl)-N-methyl-nicotinamide] | 184 to 185.5 | > 60
CN(C)c1nnc(SCC(=O)C23CC4CC(CC(C4)C2)C3)s1 [Example 104, 1-(Adamantan-1-yl)-2-{[5-(dimethylamino)-1,3,4-thiadiazol-2-yl]sulfanyl}ethan-1-one] | 150 to 151 | > 60
O=C(CS(=O)(=O)Cc1ccc[n+]([O-])c1)C12CC3CC(CC(C3)C1)C2 [Example 10, 1-Adamantan-1-yl-2-(1-oxy-pyridin-3-ylmethanesulfonyl)-ethanone] | 182 to 183.5 | > 60
Cc1nnc(SCC(=O)C23CC4CC(CC(C4)C2)C3)n1C [Example 87, 1-(Adamantan-1-yl)-2-[(4,5-dimethyl-1,2,4-triazol-3-yl)sulfanyl]ethanone] | 113 to 114 | > 60
CSc1nnc(SCC(=O)C23CC4CC(CC(C4)C2)C3)s1 [Example 106, 1-(Adamantan-1-yl)-2-{[5-(methylsulfanyl)-1,3,4-thiadiazol-2-yl]sulfanyl}ethan-1-one] | 133.5 to 135 | > 60
Nc1nnc(SCC(=O)C23CC4CC(CC(C4)C2)C3)s1 [Example 88, 1-(Adamantan-1-yl)-2-[(5-amino-1,3,4-thiadiazol-2-yl)sulfanyl]ethanone] | 198 to 199 | > 60
Cc1cccc(SCC(=O)C23CC4CC(CC(C4)C2)C3)n1 [Example 26, 1-Adamantan-1-yl-2-(6-methyl-pyridin-2-ylsulfanyl)-ethanone] | 115.5 to 116.5 | > 60
O=C(CSc1ccc(C(F)(F)F)cn1)C12CC3CC(CC(C3)C1)C2 [Example 66, 1-Adamantan-1-yl-2-(5-trifluoromethyl-pyridin-2-ylsulfanyl)-ethanone] | 141 to 142 | > 60
O=C(CS(=O)(=O)Cc1cccc[n+]1[O-])C12CC3CC(CC(C3)C1)C2 [Example 76, 1-Adamantan-1-yl-2-(1-oxy-pyridin-2-ylmethanesulfonyl)-ethanone] | 225 to 227.5 | > 60
Cn1cnnc1S(=O)(=O)CC(=O)C12CC3CC(CC(C3)C1)C2 [Example 77, 1-Adamantan-1-yl-2-(4-methyl-4H-[1,2,4]triazole-3-sulfonyl)-ethanone] | 149 to 150 | > 60
O=C(CSc1n[nH]c(-c2ccco2)n1)C12CC3CC(CC(C3)C1)C2 [Example 90, 1-(Adamantan-1-yl)-2-{[5-(furan-2-yl)-1H-1,2,4-triazol-3-yl]sulfanyl}ethanone] | 177 to 178 | < 20
O=C(C[S+]([O-])Cc1ccncc1)C12CC3CC(CC(C3)C1)C2 (centres unmarked) [Example 84, 1-Adamantan-1-yl-2-(pyridin-4-ylmethanesulfinyl)-ethanone] | 119 to 123 | > 60
O=C(CS(=O)(=O)c1ccc(C(F)(F)F)cn1)C12CC3CC(CC(C3)C1)C2 [Example 67, 1-Adamantan-1-yl-2-(5-trifluoromethyl-pyridine-2-sulfonyl)-ethanone] | 138 to 139 | 20 to 60
CC(=O)Nc1nnc([S+]([O-])CC(=O)C23CC4CC(CC(C4)C2)C3)s1 (centres unmarked) [Example 94, N-(5-{[2-(Adamantan-1-yl)-2-oxoethane]sulfinyl}-1,3,4-thiadiazol-2-yl)acetamide] | 216 to 218 | > 60
